How the values were obtained:
[1] = target: cGMP-dependent protein kinase 2 (Homo sapiens) (UniProt Q13237); conditions: Compound concentration 1000.0 nM
[2] = target: Serine/threonine-protein kinase PLK3 (Homo sapiens) (UniProt Q9H4B4); conditions: Compound concentration 1000.0 nM
[3] = target: Rhodopsin kinase GRK1 (Homo sapiens) (UniProt Q15835); conditions: Compound concentration 1000.0 nM
[4] = target: Calcium/calmodulin-dependent protein kinase kinase 1 (Homo sapiens) (UniProt Q8N5S9); conditions: Compound concentration 1000.0 nM
[5] = target: Wee1-like protein kinase (Homo sapiens) (UniProt P30291); conditions: Compound concentration 1000.0 nM
[6] = tested on: Epidermal growth factor receptor (Homo sapiens), P00533 [T790M]; conditions: Compound concentration 1000.0 nM
[7] = target: Cyclin-dependent kinase-like 2 (Homo sapiens) (UniProt Q92772); conditions: Compound concentration 1000.0 nM
Chain of Cyclin-dependent kinase-like 2 (Homo sapiens) (Q92772 whole entry, canonical isoform): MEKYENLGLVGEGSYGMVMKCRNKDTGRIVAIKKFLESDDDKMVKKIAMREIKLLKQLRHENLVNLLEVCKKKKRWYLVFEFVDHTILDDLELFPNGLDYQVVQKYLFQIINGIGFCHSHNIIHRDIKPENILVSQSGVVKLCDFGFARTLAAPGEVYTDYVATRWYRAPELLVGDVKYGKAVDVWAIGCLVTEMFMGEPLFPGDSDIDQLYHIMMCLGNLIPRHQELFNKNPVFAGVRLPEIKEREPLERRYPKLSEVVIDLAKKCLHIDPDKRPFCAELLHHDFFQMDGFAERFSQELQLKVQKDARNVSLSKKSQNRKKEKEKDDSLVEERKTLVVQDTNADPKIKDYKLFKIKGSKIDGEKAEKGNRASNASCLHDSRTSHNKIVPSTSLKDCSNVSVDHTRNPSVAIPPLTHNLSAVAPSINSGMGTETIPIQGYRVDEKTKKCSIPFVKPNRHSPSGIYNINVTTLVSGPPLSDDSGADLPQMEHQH

[8] = target: Casein kinase I isoform gamma-3 (Homo sapiens) (UniProt Q9Y6M4); conditions: Compound concentration 1000.0 nM
[9] = target: Muscarinic acetylcholine receptor M2 (Homo sapiens) (UniProt P08172); conditions: Compound concentration 10.0 uM
[10] = target: Discoidin domain-containing receptor 2 (Homo sapiens) (UniProt Q16832); conditions: Compound concentration 1000.0 nM
[11] = target: Mitogen-activated protein kinase kinase kinase 10 (Homo sapiens) (UniProt Q02779); conditions: Compound concentration 1000.0 nM
Chain of Mitogen-activated protein kinase kinase kinase 10 (Homo sapiens) (Q02779 whole entry, looked up): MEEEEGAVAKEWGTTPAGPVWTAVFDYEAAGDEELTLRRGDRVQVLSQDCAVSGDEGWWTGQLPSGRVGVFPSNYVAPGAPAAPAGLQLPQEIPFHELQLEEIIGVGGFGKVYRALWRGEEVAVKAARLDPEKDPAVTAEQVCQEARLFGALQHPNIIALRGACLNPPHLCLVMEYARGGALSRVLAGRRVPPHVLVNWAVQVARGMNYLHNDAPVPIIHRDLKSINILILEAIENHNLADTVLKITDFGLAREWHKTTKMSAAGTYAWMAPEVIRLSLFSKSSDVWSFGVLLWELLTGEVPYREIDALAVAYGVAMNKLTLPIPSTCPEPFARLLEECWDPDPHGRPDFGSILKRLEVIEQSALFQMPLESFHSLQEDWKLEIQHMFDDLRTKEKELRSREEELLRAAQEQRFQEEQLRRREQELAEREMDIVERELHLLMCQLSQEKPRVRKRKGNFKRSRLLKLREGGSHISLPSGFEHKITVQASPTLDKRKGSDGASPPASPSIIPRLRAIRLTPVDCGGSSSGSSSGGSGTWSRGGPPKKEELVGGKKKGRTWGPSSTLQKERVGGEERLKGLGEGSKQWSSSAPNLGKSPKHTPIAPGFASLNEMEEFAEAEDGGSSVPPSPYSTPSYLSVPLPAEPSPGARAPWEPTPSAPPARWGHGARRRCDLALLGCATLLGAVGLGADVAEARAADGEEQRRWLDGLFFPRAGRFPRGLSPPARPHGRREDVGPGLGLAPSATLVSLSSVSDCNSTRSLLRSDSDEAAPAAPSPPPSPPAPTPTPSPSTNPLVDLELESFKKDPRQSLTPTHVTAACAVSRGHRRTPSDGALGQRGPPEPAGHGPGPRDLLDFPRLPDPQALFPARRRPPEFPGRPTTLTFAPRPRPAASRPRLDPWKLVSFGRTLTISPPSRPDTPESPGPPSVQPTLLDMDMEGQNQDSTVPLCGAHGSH

[12] = target: Rho-associated protein kinase 1 (Homo sapiens) (UniProt Q13464); conditions: Compound concentration 1000.0 nM
[13] = target: Ephrin type-B receptor 6 (Homo sapiens) (UniProt O15197); conditions: Compound concentration 1000.0 nM
[14] = target: Tyrosine-protein kinase JAK1 (Homo sapiens) (UniProt P23458); conditions: Compound concentration 1000.0 nM
[15] = target: Cyclin-dependent kinase 17 (Homo sapiens) (UniProt Q00537); conditions: Compound concentration 1000.0 nM
[16] = target: Tyrosine-protein kinase TXK (Homo sapiens) (UniProt P42681); conditions: Compound concentration 1000.0 nM
Chain of Tyrosine-protein kinase TXK (Homo sapiens) (P42681 whole entry): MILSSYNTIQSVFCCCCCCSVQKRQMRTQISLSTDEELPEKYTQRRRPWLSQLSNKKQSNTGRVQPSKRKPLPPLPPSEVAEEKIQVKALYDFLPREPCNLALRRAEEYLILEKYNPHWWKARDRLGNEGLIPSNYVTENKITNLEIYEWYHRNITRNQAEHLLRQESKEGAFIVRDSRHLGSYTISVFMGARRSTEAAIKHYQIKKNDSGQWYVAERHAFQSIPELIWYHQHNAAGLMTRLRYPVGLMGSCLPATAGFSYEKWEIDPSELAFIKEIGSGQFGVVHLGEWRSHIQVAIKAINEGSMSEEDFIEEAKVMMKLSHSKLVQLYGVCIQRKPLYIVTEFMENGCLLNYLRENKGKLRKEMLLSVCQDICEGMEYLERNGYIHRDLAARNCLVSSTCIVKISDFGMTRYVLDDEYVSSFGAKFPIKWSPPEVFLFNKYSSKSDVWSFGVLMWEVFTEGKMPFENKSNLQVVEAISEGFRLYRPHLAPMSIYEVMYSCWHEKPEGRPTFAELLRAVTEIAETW

[17] = target: Serine/threonine-protein kinase 25 (Homo sapiens) (UniProt O00506); conditions: Compound concentration 1000.0 nM
Chain of Serine/threonine-protein kinase 25 (Homo sapiens) (O00506 whole entry, looked up): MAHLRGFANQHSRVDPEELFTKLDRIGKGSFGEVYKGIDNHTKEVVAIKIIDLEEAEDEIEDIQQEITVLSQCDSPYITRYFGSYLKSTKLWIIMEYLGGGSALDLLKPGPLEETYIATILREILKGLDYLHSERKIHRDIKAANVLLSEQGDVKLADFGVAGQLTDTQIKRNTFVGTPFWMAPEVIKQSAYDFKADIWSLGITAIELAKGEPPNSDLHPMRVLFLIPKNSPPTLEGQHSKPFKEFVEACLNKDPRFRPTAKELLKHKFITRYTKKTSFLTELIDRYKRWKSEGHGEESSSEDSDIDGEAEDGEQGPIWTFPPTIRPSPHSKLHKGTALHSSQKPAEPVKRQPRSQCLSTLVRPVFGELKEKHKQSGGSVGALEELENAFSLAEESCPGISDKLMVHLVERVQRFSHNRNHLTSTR

[18] = target: cAMP-dependent protein kinase catalytic subunit PRKX (Homo sapiens) (UniProt P51817); conditions: Compound concentration 1000.0 nM
[19] = target: Calcium/calmodulin-dependent protein kinase type II subunit alpha (Homo sapiens) (UniProt Q9UQM7); conditions: Compound concentration 1000.0 nM
Chain of Calcium/calmodulin-dependent protein kinase type II subunit alpha (Homo sapiens) (Q9UQM7 whole entry): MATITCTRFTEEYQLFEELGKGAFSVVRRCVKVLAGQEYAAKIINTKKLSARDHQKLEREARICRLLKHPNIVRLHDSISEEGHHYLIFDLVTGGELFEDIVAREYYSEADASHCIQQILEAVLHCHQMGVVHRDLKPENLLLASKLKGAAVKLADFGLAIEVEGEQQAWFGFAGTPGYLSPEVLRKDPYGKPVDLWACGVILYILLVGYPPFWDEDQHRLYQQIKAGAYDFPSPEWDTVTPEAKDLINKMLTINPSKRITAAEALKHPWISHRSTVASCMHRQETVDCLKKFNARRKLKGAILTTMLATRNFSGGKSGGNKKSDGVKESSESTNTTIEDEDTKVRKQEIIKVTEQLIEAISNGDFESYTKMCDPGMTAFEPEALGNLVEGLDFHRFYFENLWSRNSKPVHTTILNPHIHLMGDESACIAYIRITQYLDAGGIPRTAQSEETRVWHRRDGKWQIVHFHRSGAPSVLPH

[20] = target: Mitogen-activated protein kinase kinase kinase 4 (Homo sapiens) (UniProt Q9Y6R4); conditions: Compound concentration 1000.0 nM
[21] = tested on: ALK tyrosine kinase receptor (Homo sapiens), Q9UM73 [C1156Y]; conditions: Compound concentration 1000.0 nM
[22] = target: Mitogen-activated protein kinase 13 (Homo sapiens) (UniProt O15264); conditions: Compound concentration 1000.0 nM
[23] = target: RAC-beta serine/threonine-protein kinase (Homo sapiens) (UniProt P31751); conditions: Compound concentration 1000.0 nM
[24] = target: Calcium/calmodulin-dependent protein kinase type II subunit gamma (Homo sapiens) (UniProt Q13555); conditions: Compound concentration 1000.0 nM
[25] = tested on: Phosphatidylinositol 4,5-bisphosphate 3-kinase catalytic subunit alpha isoform (Homo sapiens), P42336 [Q546K]; conditions: Compound concentration 1000.0 nM
Chain of Phosphatidylinositol 4,5-bisphosphate 3-kinase catalytic subunit alpha isoform (Homo sapiens), P42336 [Q546K] (P42336 whole entry Q546K, canonical isoform): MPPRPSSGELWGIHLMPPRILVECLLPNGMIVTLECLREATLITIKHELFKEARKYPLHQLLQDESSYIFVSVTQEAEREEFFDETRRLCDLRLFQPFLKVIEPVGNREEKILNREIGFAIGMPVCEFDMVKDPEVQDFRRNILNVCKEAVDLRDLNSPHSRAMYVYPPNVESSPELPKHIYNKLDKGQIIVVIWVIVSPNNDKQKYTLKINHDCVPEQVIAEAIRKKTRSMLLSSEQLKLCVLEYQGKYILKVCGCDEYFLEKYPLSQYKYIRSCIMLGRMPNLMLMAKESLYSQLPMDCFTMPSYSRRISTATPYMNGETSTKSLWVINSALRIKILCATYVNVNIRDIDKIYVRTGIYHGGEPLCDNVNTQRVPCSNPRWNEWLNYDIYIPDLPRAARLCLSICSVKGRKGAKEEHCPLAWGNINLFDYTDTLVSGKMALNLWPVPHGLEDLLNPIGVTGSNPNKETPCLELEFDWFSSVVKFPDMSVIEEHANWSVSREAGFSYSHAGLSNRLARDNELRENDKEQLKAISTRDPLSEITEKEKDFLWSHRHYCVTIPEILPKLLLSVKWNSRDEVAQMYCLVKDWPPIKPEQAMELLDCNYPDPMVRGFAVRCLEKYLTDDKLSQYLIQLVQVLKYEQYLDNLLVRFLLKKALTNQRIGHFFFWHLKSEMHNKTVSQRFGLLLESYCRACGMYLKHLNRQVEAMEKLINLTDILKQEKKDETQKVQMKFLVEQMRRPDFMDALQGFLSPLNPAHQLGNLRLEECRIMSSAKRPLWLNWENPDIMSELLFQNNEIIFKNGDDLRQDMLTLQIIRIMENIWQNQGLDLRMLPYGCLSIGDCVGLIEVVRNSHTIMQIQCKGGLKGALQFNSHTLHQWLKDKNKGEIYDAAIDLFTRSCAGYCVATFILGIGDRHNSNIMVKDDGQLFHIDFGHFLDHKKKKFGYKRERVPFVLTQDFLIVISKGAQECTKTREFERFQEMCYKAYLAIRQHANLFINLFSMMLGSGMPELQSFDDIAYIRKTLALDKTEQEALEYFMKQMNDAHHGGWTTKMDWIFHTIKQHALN

[26] = target: TGF-beta receptor type-2 (Homo sapiens) (UniProt P37173); conditions: Compound concentration 1000.0 nM
[27] = target: Aurora kinase C (Homo sapiens) (UniProt Q9UQB9); conditions: Compound concentration 1000.0 nM
[28] = target: Dual specificity tyrosine-phosphorylation-regulated kinase 1A (Homo sapiens) (UniProt Q13627); conditions: Compound concentration 1000.0 nM
[29] = target: T1, Macrophage migration inhibitory factor (Homo sapiens) (UniProt P14174); assay: ARE-Luc Reporter Assay (Activation of ARE (antioxidant response element)-mediated cytoprotective gene expression)
T1 sequence (whole entry): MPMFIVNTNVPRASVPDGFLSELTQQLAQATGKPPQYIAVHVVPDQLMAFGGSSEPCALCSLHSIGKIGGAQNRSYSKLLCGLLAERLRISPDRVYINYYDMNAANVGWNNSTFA

[30] = target: Serine/threonine-protein kinase pim-3 (Homo sapiens) (UniProt Q86V86); conditions: Compound concentration 1000.0 nM
[31] = target: Activated CDC42 kinase 1 (Homo sapiens) (UniProt Q07912); conditions: Compound concentration 1000.0 nM
[32] = target: Mitogen-activated protein kinase 10 (Homo sapiens) (UniProt P53779); conditions: Compound concentration 1000.0 nM
[33] = target: RAC-gamma serine/threonine-protein kinase (Homo sapiens) (UniProt Q9Y243); conditions: Compound concentration 1000.0 nM
[34] = target: Phosphatidylinositol 3-kinase C2 domain-containing subunit gamma (Homo sapiens) (UniProt O75747); conditions: Compound concentration 1000.0 nM
[35] = target: Protein-tyrosine kinase 6 (Homo sapiens) (UniProt Q13882); conditions: Compound concentration 1000.0 nM
Chain of Protein-tyrosine kinase 6 (Homo sapiens) (Q13882 whole entry, looked up): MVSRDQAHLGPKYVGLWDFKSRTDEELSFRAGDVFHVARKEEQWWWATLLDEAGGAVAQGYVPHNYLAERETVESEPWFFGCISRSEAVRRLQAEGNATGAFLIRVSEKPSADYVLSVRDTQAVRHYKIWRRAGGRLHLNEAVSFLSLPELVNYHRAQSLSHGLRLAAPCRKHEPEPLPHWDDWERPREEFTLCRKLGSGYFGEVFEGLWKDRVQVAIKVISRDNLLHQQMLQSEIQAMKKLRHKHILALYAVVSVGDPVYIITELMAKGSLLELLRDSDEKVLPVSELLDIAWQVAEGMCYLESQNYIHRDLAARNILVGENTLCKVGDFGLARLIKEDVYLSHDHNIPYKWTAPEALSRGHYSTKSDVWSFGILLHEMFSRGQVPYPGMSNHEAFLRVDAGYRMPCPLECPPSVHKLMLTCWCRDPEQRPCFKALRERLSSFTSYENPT

[36] = target: Serine/threonine-protein kinase Nek6 (Homo sapiens) (UniProt Q9HC98); conditions: Compound concentration 1000.0 nM
[37] = tested on: Mast/stem cell growth factor receptor Kit (Homo sapiens), P10721 [D816V]; conditions: Compound concentration 1000.0 nM
[38] = target: Rho-associated protein kinase 2 (Homo sapiens) (UniProt O75116); conditions: Compound concentration 1000.0 nM
[39] = target: Fibroblast growth factor receptor 3 (Homo sapiens) (UniProt P22607); conditions: Compound concentration 1000.0 nM
[40] = target: Phosphatidylinositol 4,5-bisphosphate 3-kinase catalytic subunit delta isoform (Homo sapiens) (UniProt O00329); conditions: Compound concentration 1000.0 nM
[41] = tested on: Tyrosine-protein kinase ABL1 (Homo sapiens), P00519 [T315I]; conditions: Compound concentration 1000.0 nM
[42] = target: SRSF protein kinase 2 (Homo sapiens) (UniProt P78362); conditions: Compound concentration 1000.0 nM
[43] = target: Mitogen-activated protein kinase 11 (Homo sapiens) (UniProt Q15759); conditions: Compound concentration 1000.0 nM
Chain of Mitogen-activated protein kinase 11 (Homo sapiens) (Q15759 whole entry): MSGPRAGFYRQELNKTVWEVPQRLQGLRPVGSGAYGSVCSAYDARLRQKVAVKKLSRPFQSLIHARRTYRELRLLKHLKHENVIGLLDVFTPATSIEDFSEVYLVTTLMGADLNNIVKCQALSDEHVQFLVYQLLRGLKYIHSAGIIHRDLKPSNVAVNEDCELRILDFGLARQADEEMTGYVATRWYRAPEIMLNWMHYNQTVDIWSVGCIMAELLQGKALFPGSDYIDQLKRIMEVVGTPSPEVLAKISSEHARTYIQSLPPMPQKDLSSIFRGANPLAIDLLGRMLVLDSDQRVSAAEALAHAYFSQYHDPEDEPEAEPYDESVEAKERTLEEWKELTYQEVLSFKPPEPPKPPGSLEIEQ

In the case of `O=c1nc(-c2ccccn2)sc2ccccc12` [BTZO-1], the residual activity [1] is reported as 96%, the residual activity [2] is reported as 82% and the residual activity [3] is reported as 76%. It also gave a residual activity [4] of 96%, a residual activity [5] of 100% and a residual activity [6] of 100%. It also gave a residual activity [7] of 76%, a residual activity [8] of 100% and an inhibition [9] of 5.17%. The residual activity [10] was 100%, the residual activity [11] was 100% and the residual activity [12] was 100%. For the same compound, the residual activity [13] was 61%, the residual activity [14] was 86% and the residual activity [15] was 100%. It also gave a residual activity [16] of 81%, a residual activity [17] of 100% and a residual activity [18] of 100%. For the same compound, the residual activity [19] was 100%, the residual activity [20] was 92% and the residual activity [21] was 100%. For the same compound, the residual activity [22] was 99%, the residual activity [23] was 100% and the residual activity [24] was 96%. It also gave a residual activity [25] of 100%, a residual activity [26] of 100% and a residual activity [27] of 97%. For the same compound, the residual activity [28] was 91%, the MEC2.0 [29] was 820 nM and the residual activity [30] was 100%. For the same compound, the residual activity [31] was 100%, the residual activity [32] was 100% and the residual activity [33] was 100%. The residual activity [34] was 100%, the residual activity [35] was 100% and the residual activity [36] was 100%. It also gave a residual activity [37] of 100%, a residual activity [38] of 94% and a residual activity [39] of 83%. The residual activity [40] was 54%, the residual activity [41] was 100% and the residual activity [42] was 100%. It also gave a residual activity [43] of 100%.
With `O=C1NC(c2ccccn2)Sc2ccccc21` (configuration not stated) [BTZO-4] the residual activity [1] was 90%, the residual activity [2] was 88% and the residual activity [3] was 81%. The residual activity [4] was 88%, the residual activity [5] was 100% and the residual activity [6] was 96%. The residual activity [7] was 76%, the residual activity [8] was 100% and the inhibition [9] was 13.7%. For the same compound, the residual activity [10] was 100%, the residual activity [11] was 94% and the residual activity [12] was 82%. For the same compound, the residual activity [13] was 78%, the residual activity [14] was 69% and the residual activity [15] was 100%. The residual activity [16] was 100%, the residual activity [17] was 78% and the residual activity [18] was 100%. The residual activity [19] was 100%, the residual activity [20] was 100% and the residual activity [21] was 84%. The residual activity [22] was 100%, the residual activity [23] was 92% and the residual activity [24] was 98%. The residual activity [25] was 100%, the residual activity [26] was 85% and the residual activity [27] was 90%. For the same compound, the residual activity [28] was 100%, the MEC1.5 [29] was > 1 µM and the MEC2.0 [29] was > 10000 nM. It also gave a residual activity [30] of 100%, a residual activity [31] of 100% and a residual activity [32] of 100%. The residual activity [33] was 100%, the residual activity [34] was 100% and the residual activity [35] was 100%. For the same compound, the residual activity [36] was 84%, the residual activity [37] was 100% and the residual activity [38] was 67%. It also gave a residual activity [39] of 97%, a residual activity [40] of 51% and a residual activity [41] of 93%. For the same compound, the residual activity [42] was 100% and the residual activity [43] was 100%.

Reference: ChEMBL document CHEMBL4507329, “Data for DCP probe BTZO-1” (2021)
